Source: patent publication US12325681B2, “Inhibitors of nitric oxide synthases (NOS), pharmaceutical products thereof, and methods thereof” (Gacter Inc., priority 2022, dated 2025)
Where a name gives a salt, the structure may show the parent alone.

Assays:
iNOS [1] = target: T1, iNOS (Homo sapiens, UniProt P35228); assay: abcam NOS Inhibitor Screening Kit, IC50 (fluorescence); assay type: biochemical; set-up: IC50; IC50; settings: abcam NOS Inhibitor Screening Kit
Protocol: (§1) The IC50 of some compounds of the invention was determined using the abcam NOS Inhibitor Screening Kit. The procedure includes the following steps: (1) Dissolved a test compound to 10 mM in DMSO; (2) Diluted the test compound to 1 mM in NOS Assay Buffer; (3) Diluted 1 mM of the test compound stocks to 200 μM, 50 μM, 12.5 μM, 3.125 μM, 0.781 μM, and 0.195 μM in NOS Assay Buffer; (4) Diluted 1 mM DPI Control to 50.0 μM, 12.5 μM, 3.125 μM, 0.781 μM, 0.195 μM, and 0.0488 μM in NOS Assay Buffer; (5) Diluted NOS enzyme with 400 μL of NOS Assay Buffer; (6) Combined Diluted NOS Enzyme with 1.6 mL of NOS Assay buffer then transferred 20 μL of enzyme solution to all wells of 96-well Fluorescence plate except background wells. Added 20 μL of NOS Assay buffer to background wells. (7) Transferred 10 uL of each test compound dilution to the enzyme buffer mix according to the plate map (see addendum for plate map and raw data values). (8) Incubated 15 minutes at room temperature. (9) Added 11 μL of NOS reaction mix (according to manufacturer's protocol) to each well, mixed, and incubated at 37° C. for 1 hour. (10) Added 110 μL of NOS Assay Buffer to each well followed by 5 μL of Enhancer to each well, mixed, and incubated 10 minutes at room temperature; (11) Added 10 μL of Probe to each well, mixed, and incubated 10 minutes at room temperature; and (12) Added 5 μL of NaOH to each well, mixed, and incubated 10 minutes at room temperature. Measure Fluorescence at 360 nm excitation/450 nm emission.

iNOS [2] = target: T1, iNOS; assay: as above; assay type: biochemical; set-up: Fold (GT-xxxx)/AZ 6b; settings: ratio of IC50 to AZ 6b IC50 (0.0488 μM)
Protocol: as §1

Row | IC50 (iNOS [1]; Table C-1) | IC50 (iNOS [1]; Table C-2) | Fold (GT-xxxx)/AZ 6b (iNOS [2]) | SMILES
1 | 0.252 µM | 0.252 µM | 5.16 | CNCC[C@@H](Oc1cc(Cl)cc2[nH]ncc12)c1ccccc1 [GT-6059, (R)-3-((6-chloro-1H-indazol-4-yl)oxy)-N-methyl-3-phenylpropan-1-amine]
2 | 6.75 µM | – | – | Cc1ccc(C#N)c(O[C@H](CCN2CC[C@@H](O)C2)c2ccccc2)n1 [GT-5017, 2-((R)-3-((R)-3-hydroxypyrrolidin-1-yl)-1-phenylpropoxy)-6-methyl nicotinonitrile]
3 | 0.231 µM | 0.231 µM | 4.73 | NCC[C@@H](Oc1cc(Cl)cc2[nH]ncc12)c1ccccc1 [GT-6045]
4 | 23.3 µM | – | – | CNCC[C@@H](Oc1nc(C(F)(F)F)ccc1C#N)c1ccccc1 [GT-5013, (R)-2-(3-(methylamino)-1-phenylpropoxy)-6-(trifluoromethyl) nicotinonitrile]
5 | 20.3 µM | – | – | N#Cc1ccc(Cl)cc1CN(CCNC(CO)CO)c1ccccc1 [GT-7018, 4-chloro-2-(((2-((1,3-dihydroxypropan-2-yl)amino)ethyl)(phenyl)amino)methyl)benzonitrile]
6 | 0.148 µM | 0.148 µM | 3.03 | N#Cc1ccc(Cl)cc1C(=O)N(CCNCCO)c1ccccc1 [GT-7009, 5-chloro-2-cyano-N-(2-((2-hydroxyethyl)amino)ethyl)-N-phenylbenzamide]
7 | 0.112 µM | 0.112 µM | 2.30 | N#Cc1ccc(Cl)cc1C(=O)N(CCN)c1ccccc1Cl [GT-7002, N-(2-aminoethyl)-5-chloro-N-(2-chlorophenyl)-2-cyanobenzamide]
8 | 3.66 µM | – | – | N#Cc1ccc(Cl)cc1C(=O)N(CCNC(CO)CO)c1ccccc1 [GT-7017, 5-chloro-2-cyano-N-(2-((1,3-dihydroxypropan-2-yl)amino)ethyl)-N-phenylbenzamide]
9 | 0.444 µM | 0.444 µM | 9.10 | OCCNCC[C@@H](Oc1cc(Cl)cc2[nH]cnc12)c1ccccc1 [GT-6060, (R)-2-((3-((6-chloro-1H-benzo[d]imidazol-4-yl)oxy)-3-phenylpropyl)amino)ethan-1-ol]
10 | 0.0678 µM | 0.0678 µM | 1.39 | N#Cc1ccc(Cl)cc1OC(CCN1C(=O)c2ccccc2C1=O)c1ccn2ccnc2c1 (stereo not shown) [GT-6065, 4-chloro-2-(3-(1,3-dioxoisoindolin-2-yl)-1-(imidazo[1,2-a]pyridin-7-yl)propoxy)benzonitrile]
11 | 0.0955 µM | 0.0955 µM | 1.96 | NCCN(C(=O)c1cc(Cl)ccc1Br)c1ccccc1Cl [GT-7007, N-(2-aminoethyl)-2-bromo-5-chloro-N-(2-chlorophenyl) benzamide]
12 | 1.59 µM | – | – | Cc1ccc(C#N)c(O[C@H](CCN)c2ccccc2)n1 [GT-5001, (R)-2-(3-amino-1-phenylpropoxy)-6-methylnicotinonitrile]
13 | 1.35 µM | – | – | CNCC[C@@H](Oc1nc(C)ccc1C#N)c1ccccc1 [GT-5002, (R)-6-methyl-2-(3-(methylamino)-1-phenylpropoxy)nicotinonitrile]
14 | 0.27 µM | 0.27 µM | 5.53 | O=C1c2ccccc2C(=O)N1CC[C@@H](Oc1cc(Cl)cc2[nH]ncc12)c1ccccc1 [GT-6066, (R)-2-(3-((6-chloro-1H-indazol-4-yl)oxy)-3-phenylpropyl)isoindoline-1,3-dione]
15 | 0.064 µM | 0.064 µM | 1.31 | Cl.N#Cc1ccc(Cl)cc1CN(CCN)c1ccccc1 [GT-7003, 2-(((2-aminoethyl)(phenyl)amino)methyl)-4-chlorobenzonitrile hydrochloride]
16 | 9.18 µM | – | – | N#Cc1ccc(Cl)cc1CN(CCNCCO)c1ccccc1 [GT-7010, 4-chloro-2-(((2-((2-hydroxyethyl)amino)ethyl)(phenyl)amino)methyl) benzonitrile]
17 | 157 µM | – | – | NCCN(Cc1cc(Cl)ccc1Br)c1ccccc1 [GT-7006, N1-(2-bromo-5-chlorobenzyl)-N1-phenylethane-1,2-diamine]
18 | 0.457 µM | 0.457 µM | 9.36 | CNCC[C@@H](Oc1cc(Cl)cc2[nH]cnc12)c1ccccc1 [GT-6058, (R)-3-((6-chloro-1H-benzo[d]imidazol-4-yl)oxy)-N-methyl-3-phenylpropan-1-amine]
19 | 10.5 µM | – | – | N#Cc1ccc(Cl)cc1CN(CCNC1CCC(O)CC1)c1ccccc1 (single isomer, unassigned) [GT-7023, 4-chloro-2-(((2-((4-hydroxycyclohexyl)amino)ethyl)(phenyl)amino)methyl) benzonitrile]

Row | IC50 (iNOS [1]; Table C-1) | IC50 (iNOS [1]; Table C-2) | Fold (GT-xxxx)/AZ 6b (iNOS [2]) | SMILES
20 | 7.29 µM | – | – | Cc1ccc(C#N)c(O[C@H](CCNCCN2CCOCC2)c2ccccc2)n1 [GT-5020, (R)-6-methyl-2-(3-((2-morpholinoethyl)amino)-1-phenylpropoxy)nicotinonitrile]
21 | 5.79 µM | – | – | N#Cc1ccc(Cl)cc1CN(CCN)c1ccccc1Cl [GT-7004, 2-(((2-aminoethyl)(2-chlorophenyl)amino)methyl)-4-chlorobenzonitrile hydrochloride]
22 | 2.17 µM | – | – | Cc1ccc(C#N)c(O[C@H](CCNCCO)c2ccccc2)n1 [GT-5014, (R)-2-(3-((2-hydroxyethyl)amino)-1-phenylpropoxy)-6-methylnicotinonitrile]
23 | 5.04 µM | – | – | Cc1ccc(C#N)c(O[C@H](CCNC(C)(C)C)c2ccccc2)n1 [GT-5018, (R)-2-(3-(tert-butylamino)-1-phenylpropoxy)-6-methylnicotinonitrile]
24 | 0.156 µM | 0.156 µM | 3.20 | NCC[C@@H](Oc1cc(Cl)cc2[nH]cnc12)c1ccccc1 [GT-6041, (R)-3-((6-chloro-1H-benzo[d]imidazol-4-yl)oxy)-3-phenylpropan-1-amine]
25 | 12600 µM | – | – | CNCC[C@@H](Oc1nc(C)ccc1Br)c1ccccc1 [GT-5012, (R)-3-((3-bromo-6-methylpyridin-2-yl)oxy)-N-methyl-3-phenylpropan-1-amine]
26 | 5.43 µM | – | – | Cc1ccc(C#N)c(O[C@H](CCNCCc2c[nH]cn2)c2ccccc2)n1 [GT-5023, (R)-2-(3-((2-(1H-imidazol-4-yl)ethyl)amino)-1-phenylpropoxy)-6-methylnicotinonitrile]
27 | 0.29 µM | 0.29 µM | 5.94 | N#Cc1ccc(Cl)cc1C(=O)N(CCNCCCO)c1ccccc1 [GT-7011, 5-chloro-2-cyano-N-(2-((3-hydroxypropyl)amino)ethyl)-N-phenylbenzamide]
28 | 14.4 µM | – | – | N#Cc1ccc(Cl)cc1CN(CCNC1CCC(O)CC1)c1ccccc1 (single isomer, unassigned) [GT-7024, 4-chloro-2-(((2-((4-hydroxycyclohexyl)amino)ethyl)(phenyl)amino)methyl) benzonitrile]
29 | 8.52 µM | – | – | N#Cc1ccc(Cl)cc1CN(CCNC[C@@H](O)CO)c1ccccc1 [GT-7016, (R)-4-chloro-2-(((2-((2,3-dihydroxypropyl)amino)ethyl)(phenyl)amino)methyl)benzonitrile]
30 | 4.54 µM | – | – | Cc1ccc(C#N)c(O[C@H](CCNCC2CC2)c2ccccc2)n1 [GT-5031, (R)-2-(3-((cyclopropylmethyl)amino)-1-phenylpropoxy)-6-methylnicotinonitrile]
31 | 3.56 µM | – | – | Cc1ccc(C#N)c(O[C@H](CCNC[C@@H](O)CO)c2ccccc2)n1 [GT-5025, 2-((R)-3-(((R)-2,3-dihydroxypropyl)amino)-1-phenylpropoxy)-6-methylnicotinonitrile]
32 | 2.34 µM | – | – | Cc1ccc(C#N)c(O[C@H](CCNC[C@H](O)CO)c2ccccc2)n1 [GT-5024, 2-((R)-3-(((S)-2,3-dihydroxypropyl)amino)-1-phenylpropoxy)-6-methylnicotinonitrile]
33 | 1.74 µM | – | – | Cc1ccc(C#N)c(O[C@H](CCNCCCO)c2ccccc2)n1 [GT-5015]
34 | 5.56 µM | – | – | NCCN(Cc1cc(Cl)ccc1Br)c1ccccc1Cl [GT-7008, N1-(2-bromo-5-chlorobenzyl)-N1-(2-chlorophenyl)ethane-1,2-diamine hydrochloride]
35 | 4.04 µM | – | – | Cc1ccc(C#N)c(O[C@H](CCN2CC[C@H](O)C2)c2ccccc2)n1 [GT-5016, 2-((R)-3-((S)-3-hydroxypyrrolidin-1-yl)-1-phenylpropoxy)-6-methyl nicotinonitrile]
36 | 15.5 µM | – | – | N#Cc1ccc(Cl)cc1CN(CCNCC1CC1)c1ccccc1 [GT-7020, 4-chloro-2-(((2-((cyclopropylmethyl)amino)ethyl)(phenyl)amino)methyl) benzonitrile]
37 | 9.62 µM | – | – | Cc1ccc(C#N)c(O[C@H](CCNCCN(C)C)c2ccccc2)n1 [GT-5019, (R)-2-(3-((2-(dimethylamino)ethyl)amino)-1-phenylpropoxy)-6-methyl nicotinonitrile]
